Measurements as given in publication PMC9181887, “In Vitro Antithrombotic, Hematological Toxicity, and Inhibitor Studies of Protocatechuic, Isovanillic, and p-Hydroxybenzoic Acids from Maclura tricuspidata (Carr.) Bur” (Molecules, 2022).
Read-outs that look alike come from different tables or passages of the source.

Key:
platelet aggregation [1] = test system: platelet aggregation; design: method as in PMID 20824965, PMID 9869276; conditions: ADP or collagen-induced platelet aggregation; cited from earlier work
diabetic rats = test system: diabetic rats; design: method as in PMID 20824965, PMID 9869276; conditions: cited from earlier work
human plasma [2] = experiment: Coagulation assay, PT; assay type: biochemical; conditions: 50–100 μg
Procedure: (§1) A coagulation assay was performed to evaluate the prolongation potential of the compounds in blood coagulation by measuring APTT, PT, and TT, as previously described. After pretreatment of the compounds with human plasma for 10 min, APTT, PT, and TT were determined by a coagulometer (Thrombostat 1) manufactured by Behnk Elektronik, Germany.

platelet aggregation [3] = test system: platelet aggregation; design: method as in PMID 20824965, PMID 9869276; conditions: sodium arachidonate-induced platelet aggregation; cited from earlier work
human plasma [4] = experiment: Coagulation assay, TT; assay type: biochemical; conditions: 50–100 μg
Procedure: as §1

erythrocytes = experiment: Hematological study, erythrocyte count by hemocytometer; assay type: cell-based; conditions: up to 200 μg/mL, 10 min, vs control
Procedure: Figure 1 Blood cytotoxic effect of PA (A), IVA (B), and 4-HA (C). Aliquots of washed platelets (10^3/mL), erythrocytes (10^6/mL), and leukocytes (10^3/mL) were treated with or without the compounds for 10 min and cell number was determined by hemocytometer counts. Each value is the mean ± SD of triplicate measurements. * p < 0.05 and ** p < 0.01, compared to each control groups. 10–500, 10–100 μg of each compound treated.
Total white blood cells (leukocytes) and red blood cells (erythrocytes) were counted using a hemocytometer, as previously described. Blood was diluted 1:200 with Hayem’s fluid and the cells were counted in a loaded hemocytometer chamber. To count the blood platelets, blood was diluted in a ratio of 1:20 with a diluting fluid, and four large (1 mm^2) corner squares of the hemocytometer were counted under a light microscope. Aliquots of leukocytes (0.1 mL; 10^3/mL), erythrocytes (0.1 mL; 10^6/mL), and platelets (0.1 mL; 10^3/mL) were treated with or without the compounds for 10 min.

Structure (SMILES)	IC50 (platelet aggregation [1]) [µM]	plasma glucose levels (diabetic rats)	PT, fold of control (human plasma [2])	prothrombin time (PT) (human plasma [2]; control 20.8 ± 0.7 s, p < 0.05) [s]	IC50 (platelet aggregation [3]) [µM]	TT, fold of control (human plasma [4])	thrombin time (TT) (human plasma [4]; control 9.4 ± 0.2 s, p < 0.01) [s]	effect on the number of erythrocytes (erythrocytes)
O=C(O)c1ccc(O)cc1 [4-HA, 4-hydroxybenzoic acid]	1000 to 3400	reducing plasma glucose levels in a dose-dependent manner	1.25–1.26 fold	25.9 to 26.2	300	1.14–1.15 fold	10.7 to 10.8	–
COc1ccc(C(=O)O)cc1O [IVA, isovanillic acid]	–	–	–	–	–	–	–	did not show any effect
O=C(O)c1ccc(O)c(O)c1 [PA, protocatechuic acid]	–	–	–	–	–	–	–	did not show any effect
